Reference: US10408843B2, “Compositions and methods for detecting S-nitrosylation and S-sulfinylation” (The Regents of the University of Michigan, priority 2013, dated 2019)
One block for each compound: values may come before it.

Tests used:
[1] = system: sulfenic acids in 293T cell lysates; assay: Dimedone-alkyne detection of sulfenic acids in lysates; format: biochemical, human
Description: FIG. 12. Sulfenic acids are eliminated by ascorbate reduction or denaturing buffers. Lysates were labeled for 1 hour with 1 mM dimedone-alkyne, and precipitated with chloroform:methanol. The protein fraction was sonicated in PBS and diluted to 1 mg/mL, and incubated with 20 μM TAMRA-azide, 1 mM CuSO4, and 100 μM Tris[(1-benzyl-1H-1,2,3-triazol-4-yl)methyl]amine (TBTA) for 1 hour, boiled in reducing loading buffer, and separated by SDS-PAGE. After transfer and Cy5-streptavidin binding, the gel was visualized using a GE Typhoon fluorescence scanner. […] Pre-treatment with sodium ascorbate (20 mM) for 30 minutes efficiently reduces sulfenic acids. […] Furthermore, ascorbate reduces sulfenic acids, and confirms non-selective enrichment of an additional cysteine oxidative modification by the biotin-switch method.

Recombinant human GAPDH = target: T1, Recombinant human GAPDH (Homo sapiens, UniProt P04406); assay: Labeling of recombinant GAPDH (in-gel fluorescence, LC-MS); format: biochemical
T1 construct: 6His; made in house; host or cells: E. coli BL21
T1 sequence (P04406 whole entry): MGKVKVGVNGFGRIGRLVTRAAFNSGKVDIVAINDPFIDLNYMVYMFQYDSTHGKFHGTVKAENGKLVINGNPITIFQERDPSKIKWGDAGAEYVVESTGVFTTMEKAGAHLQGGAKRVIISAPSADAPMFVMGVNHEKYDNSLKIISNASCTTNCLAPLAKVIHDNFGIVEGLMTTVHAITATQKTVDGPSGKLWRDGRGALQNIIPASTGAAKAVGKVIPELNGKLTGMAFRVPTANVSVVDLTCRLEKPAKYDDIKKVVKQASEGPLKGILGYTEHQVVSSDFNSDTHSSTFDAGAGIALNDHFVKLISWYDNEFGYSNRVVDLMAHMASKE
Description: FIG. 14. Profiling fluorescein-SO2H reactivity and selectivity on S-nitrosylated GAPDH. Recombinant human GAPDH was resuspended in 6 M urea/PBS, treated with 50 mM iodoacetamide for 30 minutes, and mixed with dimedone, ascorbate, peroxide or NO donor (5 minutes). Fluorescein-SO2H (500 μM) was then added to the GAPDH sample for 45 minutes. S-nitrosylated human GAPDH labeling increases upon incubation with the NO donor MAHMA-NONOate, and decreases following treatment with ascorbate. […] Fluorescein-SO2H labeling is unaffected by pre-incubation with peroxide or dimedone.
FIG. 15. Biotin-SO2H reacts with human GAPDH and forms a thiosulfonate. Recombinant human GADPH was labeled with biotin-SO2H for site-specific analysis of S-nitrosylation by high-resolution mass spectrometry.
Given the efficient and selective conjugation of sulfinic acids and nitrosothiols, recombinant human GAPDH were next purified for targeted analysis of S-sulfinylation with biotin-SO2H. […] Biotin-SO2H-labeled GAPDH protein was digested with trypsin and analyzed by high-resolution mass spectrometry, identifying a biotin-thiosulfonate modified peptide encompassing the GAPDH catalytic cysteine (FIG. 15). […] These studies confirm direct detection of native of S-sulfinylation by sulfinic acid probes for mass spectrometry analysis.
Purified human GAPDH was diluted to 0.2 mg/mL in phosphate buffered saline (pH 7.3), and treated with 20 mM iodoacetamide for 30 minutes. Next, the sample was treated with 100 μM biotin-SO2H. Purified human DJ-1 was diluted to 0.2 mg/mL in PBS, and incubated with 20 mM iodoacetamide to alkylated free thiols. Next, the sample was treated with 2 mM hydrogen peroxide for 20 minutes to promote Cys106 sulfinic acid formation. […] Eluted peptides were analyzed using a Waters Synapt G2-S HDMS time-of-flight mass spectrometer in positive mode. […] MS data was searched using Waters Protein Lynx Global Server v3.0 using the exact mass calculated for the cysteine thiosulfonate modification.

[2] = system: S-nitrosylated proteins in mammalian cell lysates; assay: Gel-based labeling of endogenous S-nitrosylated proteins in cell lysates; format: biochemical, human; details: lysates denatured, alkylated with iodoacetamide; streptavidin detection
Description: FIG. 8. Dose-dependent labeling of S-nitrosylated proteins by biotin-SO2H. 293T and PANC1 cells were lysed in 6 M urea/PBS and alkylated with 50 mM iodoacetamide for 30 minutes, followed by incubation with increasing concentrations of biotin-SO2H for 45 minutes.
Next, the reactivity of sulfinic acids with native S-nitrosylated proteins was examined. Biotin and fluorescein N-hydroxysuccinimide (NHS) esters were directly coupled to the biological sulfinic acid metabolite hypotaurine (biotin-SO2H) or the sulfonic acid metabolite taurine (biotin-SO3H). Each probe was incubated with mammalian cell lysates pre-alkylated with excess iodoacetamide (FIG. 1b) in 6 M urea/phosphate buffered saline (PBS), and separated by non-reducing SDS-PAGE for transfer to nitrocellulose and streptavidin detection. […]
Cells and lysates were protected from light and kept on ice throughout the labeling protocol, except when noted. […] Lysate protein concentrations were quantified using the Bio-Rad DC assay, and diluted 3 mg/mL in 6 M urea/PBS. […] For in-gel fluorescence analysis, samples were loaded without boiling using non-reducing SDS-PAGE loading buffer for SDS-PAGE separation. […] In-gel fluorescence and streptavidin blots were analyzed using a GE typhoon scanner at appropriate wavelengths (488/526 for fluorescein and 633/670 for Cy5-Streptavidin).

[3] = Rate constant determination: loss of GSNO absorbance after phenylsulfinic acid addition; format: physicochemical
Description: FIG. 6A-B. GSNO is consumed by increasing concentrations of sodium phenylsulfinate. (a) A 2 mM solution of S-nitrosoglutathione (GSNO, Cayman) was treated with increasing concentrations of phenylsulfinic acid, and the absorbance of GSNO was monitored over a period of 90 minutes at 340 nm using a plate reader in varying pH buffers. (b) Calculation of rate constants at differing pH values. At pH 7, the rate becomes more hyperpbolic.
Thiosulfonate formation was further characterized by measuring the loss of S-nitroso-glutathione (GSNO) absorbance after phenylsulfinic acid addition (FIG. 6). At pH 1 and 4, the reaction rate is first order and proceeds at 3×10^−5 M·sec^−1. […]
S-nitrosoglutathione (GSNO, Cayman) and sodium phenylsulfinate (Sigma-Aldrich) were used for rate-determination studies at four pH values: pH 1.0 (0.2 N HCl/KCl buffer), pH 4.0 (0.1 M Sodium acetate/Acetic Acid buffer), pH 7.0 (0.1 M potassium phosphate buffer) and pH 10.0 (0.1 M Sodium bicarbonate/Sodium hydroxide buffer). The purity of S-nitrosoglutathione was calculated as 94±1.3% by absorbance at 334 nm using the molar extinction coefficient of 900 M^−1 cm^−1. Assays were performed using a plate reader (Tecan Infinite F500) monitoring absorbance of 2 mM GSNO at 340 nm over a course of 90 minutes in the presence of varying concentrations of sodium phenylsulfinate. […]

[4] = HPLC cross-reactivity assay of phenylsulfinic acid; format: physicochemical
Description: FIG. 3. […] A 10 mM solution of phenylsulfinic acid was allowed to react with a 20 mM solution of iodoacetamide in potassium phosphate buffer pH 7.4 for 5 hours. After 5 hours, the reaction mixture was injected on an HPLC and separated using gradient elution (5% ACN to 95% ACN over 15 minutes). Absence of additional peaks (over 202-798 nm, monitored on a PDA detector) was interpreted as no reaction between the sulfinic acid and iodoacetamide.
A 2 mM solution of phenylsulfinic acid was allowed to stand with 20 mM solutions of N-acetyl-cysteine-methyl ester, benzaldehyde, cystine dimethyl ester, and 5,5′-dithiobis-(2-nitrobenzoic acid) in phosphate buffer pH 7.4 for 5 hours. The reaction mixtures were injected on an HPLC and analyzed using gradient elution (5% ACN to 95% ACN over 15 minutes). Peaks beyond minute 8.6 in (a) are contaminants present in the commercial cysteine sample (Sigma-Aldrich).
Cross-reactivity was determined by allowing components to react for 4 hours. HPLC analysis (every 30 minutes) was used to monitor reactions. Reduction in peak intensity of initial components and the appearance of new peak was termed as a positive reaction. Partial reaction indicates incomplete reaction.

[5] = HPLC assay of thiosulfonate reduction by TCEP or ascorbate; format: physicochemical
Description: FIG. 5A-B. The thiosulfonate product is reduced by TCEP, but not ascorbate. A 0.5 mM solution of the thiosulfonate product was incubated with 2.5 mM TCEP or 2.5 mM sodium ascorbate in phosphate buffer (pH 7.4) in the dark at room temperature. After 5 minutes and 60 minutes, an aliquot injected for HPLC analysis and separated using gradient elution (5% ACN to 95% ACN over 15 minutes).

Compound: C#CCCCC1CC(=O)CC(=O)C1 [Dimedone alkyne, 5-(pent-4-yn-1-yl)cyclohexane-1,3-dione]
detection of sulfenic acids ([1]; 1 mM, 1 hour, PBS): most efficient in PBS | dimedone labeling ([1]; lysate denatured in 6 M urea/PBS): nearly completely eliminated

Compound: O=C(CCCC[C@@H]1SC[C@@H]2NC(=O)N[C@@H]21)NCCS(=O)(=O)O [biotin-SO3H, 2-(5-((3aS,4S,6aR)-2-oxohexahydro-1H-thieno[3,4-d]imidazol-4-yl)pentanamido)ethanesulfonic Acid]
labeling of mammalian proteins [2]: unreactive

Compound: O=S(O)c1ccccc1 [phenylsulfinic acid]
reaction with GSNO ([3]; basic conditions): no reaction occurs | reaction rate of thiosulfonate formation with GSNO ([3]; pH 1 and 4, first order): 3e-05 M/s | reaction with thiols, disulfides, or aldehydes ([4]; 2 mM with 20 mM N-acetyl-cysteine-methyl ester, benzaldehyde, cystine dimethyl ester, DTNB, phosphate buffer pH 7.4, 5 hours): do not react | reaction with iodoacetamide ([4]; 10 mM with 20 mM iodoacetamide, potassium phosphate buffer pH 7.4, 5 hours): no reaction

Other lines, results leading:

GAPDH labeling after pre-incubation with peroxide or dimedone (Recombinant human GAPDH; 500 μM probe, 45 minutes): unaffected
Compound: O=C(NCCS(=O)O)c1ccc(-c2c3ccc(=O)cc-3oc3cc(O)ccc23)c(C(=O)O)c1 [Fluorescein-SO2H, 2-(6-hydroxy-3-oxo-3H-xanthen-9-yl)-5-((2-sulfinoethyl)carbamoyl)benzoic Acid]

labeling of GAPDH (Recombinant human GAPDH; 6 M urea/PBS, 50 mM iodoacetamide, probe 45 minutes): does not label GAPDH
Compound: O=C(NCCS(=O)(=O)O)c1ccc(-c2c3ccc(=O)cc-3oc3cc(O)ccc23)c(C(=O)O)c1 [fluorescein-SO3H, 2-(6-hydroxy-3-oxo-3H-xanthen-9-yl)-5-((2-sulfoethyl)carbamoyl)benzoic Acid]

cleavage of thiosulfonate bond by TCEP ([5]; 0.5 mM with 2.5 mM TCEP, phosphate buffer pH 7.4, room temperature): immediately cleaves | cleavage of thiosulfonate bond by ascorbate ([5]; 0.5 mM with 2.5 mM sodium ascorbate, pH 7.4, 60 minutes): does not
Compound: COC(=O)[C@H](CSS(=O)(=O)c1ccccc1)NC(C)=O [thiosulfonate product, (R)-methyl 2-acetamido-3-((phenylsulfonyl)thio)propanoate]
